Source: ChEMBL document CHEMBL1141981, “Studies on synthesis and evaluation of quantitative structure-activity relationship of 5-[(3'-chloro-4',4'-disubstituted-2-oxoazetidinyl)(N-nitro)amino]-6-hydroxy-3-alkyl/aryl[1,3]azaphospholo[1,5-a]pyridin-1-yl-phosphorus dichlorides” (2005)
Several values for one entry are separate records, joined by “and”; a condition that tells them apart may be missing. Equal values may be shown once.

Legend:
Format in all cases: functional
Staphylococcus aureus = assay: Minimum inhibitory concentration against Staphylococcus aureus
Bacillus subtilis = assay: Minimum inhibitory concentration against Bacillus subtilis
[1] = Minimum inhibitory concentration against Candida albicans

Row | Structure (SMILES) | -Log MIC (Staphylococcus aureus) | -Log MIC (Bacillus subtilis) | -Log MIC [1]
1 | CC1(C)S[C@@H]2[C@H](NC(=O)[C@H](N)c3ccccc3)C(=O)N2[C@H]1C(=O)O [AMPICILLIN] | 3.097 ug ml-1 | 4.606 ug ml-1 | 
2 | Clc1ccccc1C(c1ccccc1)(c1ccccc1)n1ccnc1 |  |  | 3.14 µg ml-1 and 3.24 µg ml-1
